Measured values taken from patent publication US11597703B2, “Caspase inhibitors and methods of use thereof” (Histogen Inc., priority 2019, dated 2023).

Tests used:
[1] = Rodent model of ulcerative colitis induced by TNBS; assay type: in vivo, Sprague-Dawley rats; conditions: for colon histology: Edema, Submucosal, Mean / colon histology: Erosion/ Ulceration, Mean / colon histology: Hyperplasia, Epithelial, Mean / colon histology: Necrosis, Mucosal/ Gland Loss, Mean / colon histology: SUM Score, Mean / colon histology: Subacute Inflammation, Mucosal/ Submucosal, Mean / colon histology: Subacute Inflammation, Transmural/ Serosal, Mean: DAY 7
Protocol: Compounds of the present invention were tested by oral administration in a rodent model of ulcerative colitis (UC). Ulcerative colitis was induced in Sprague-Dawley rats by instillation of 48 mg/kg […], (TNBS), through the rectum. Testing included 4 active treatment groups and one vehicle control group.
Effect of TNBS-Induced UC in Vehicle Treated Control Group, (Group 1):
Rats were administered of 0.5% vehicle carboxy methylcellulose, (CMC), twice daily starting 24 hours after the instillation of TNBS.
At the termination of the study on DAY 7, the average colon weight in the diseased rats was 5.904±2.208 g, the average colon length was 11.0±1.4 cm and the average distal colon width was 3.1±1.0 cm. Severe adhesions involving multiple intestinal loops, severe stricture resulting in proximal colon distension, ulcers of 6.4±0.4 cm in length, and colonic wall thickness of 3.5±0.8 mm combined to yield an overall colonic score of 11.5±0.8 in the diseased rats. […] Subacute inflammation (sub/mucosal and transmural/serosal were graded separately) was characterized by infiltration and aggregation of neutrophils, eosinophils, lymphocytes, plasma cells, and macrophages. Mucosal necrosis was characterized by damage to, necrosis of, or complete loss of colonic glands. Erosions were characterized by coagulative necrosis or loss of surface epithelium superficial to the muscularis mucosae. Submucosal edema was characterized by expansion of the submucosa by clear space or pale eosinophilic fluid, variably accompanied by dilation of lymphatic vessels and similar edematous expansion of the lamina propria. Epithelial hyperplasia was characterized by elongation of colonic glands and increased numbers of epithelial mitotic figures.

Jurkat cells = experiment: Prevention of Fas-induced apoptosis in Jurkat cells (WST-8); assay type: cell-based; conditions: Homo sapiens, 10 micromolar, read-out: % Prevention of Fas - induced Jurkat cell apoptosis at 10 micromolar
Protocol: Compounds of the present invention were evaluated in Jurkat cells, a human T-lymphocyte cell line, to evaluate compounds ability to inhibit apoptotic cell death. Jurkat cells, Clone E6-1 (ATCC TIB-152) were grown in culture maintain a cell density between 0.5-2 million cells/mL. Cells were tested for viability and countion with typan blue stain before use. Test compounds were addedd to 96 well plates and Jurkat cells were added at a concentration of approximately 100,000 cells per well and mixed thoroughly by action of pipetting. Plated cells were incubated for 1 hour at 37 degrees C. under an atmosphere of 5% CO2. Anti-Fas antibody was added and mixed by pipet action. Plates were incubated for 20 hours at 37 degrees C. under an atmosphere of 5% CO2. 10 microliters of thawed WST-8 solution was added to each well and incubated for 4 hours. Absorbance was measured at 450 nm and control reading at […] using a SpectraMax ID5 plate reader. Apoptotic cell death is executed by caspases 3, 7 and 6. Compounds that lack activity against these caspases will not prevent the death of Jurkat cells and is a functional test of selectivity for inflammatory over apoptotic caspases.
IC50 values to protect against Fas induced apoptosis and improve survival of Jurkat cells were determined from dose response studies.

Caspase 6 = target: T1, Caspase 6 (Homo sapiens, UniProt P55212); experiment: Caspase 6 enzymatic inhibition assay, IC50; assay type: biochemical; conditions: read-out: Caspase 6 enzyme inhibition IC50
T1 construct: purchased Enzo Biosciences
T1 sequence (P55212 24-179 limits assumed): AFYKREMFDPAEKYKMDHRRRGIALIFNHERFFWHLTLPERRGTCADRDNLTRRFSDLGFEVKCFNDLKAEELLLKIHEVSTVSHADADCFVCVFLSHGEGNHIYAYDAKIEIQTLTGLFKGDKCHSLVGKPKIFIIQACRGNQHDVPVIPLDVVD
T1 sequence (P55212 194-293 limits assumed): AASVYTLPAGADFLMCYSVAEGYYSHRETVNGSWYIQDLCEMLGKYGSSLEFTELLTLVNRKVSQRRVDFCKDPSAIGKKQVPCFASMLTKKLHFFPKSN
Outline: (§1)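 Human caspase-3/-6/-7, commercial enzyme; run per manufacturer's instructions; IC50 from enzymatic activity.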

Caspase-3 = target: T2, Caspase-3 (Homo sapiens, UniProt P42574); experiment: Caspase-3 enzymatic inhibition assay, IC50; assay type: biochemical; conditions: read-out: Caspase 3 enzyme inhibition IC50
T2 construct: purchased Enzo Biosciences
T2 sequence (P42574 29-175 limits assumed): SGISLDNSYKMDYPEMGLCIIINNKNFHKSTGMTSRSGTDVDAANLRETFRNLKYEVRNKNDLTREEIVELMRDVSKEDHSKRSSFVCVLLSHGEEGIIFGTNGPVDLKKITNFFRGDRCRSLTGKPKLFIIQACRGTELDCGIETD
T2 sequence (P42574 176-277 limits assumed): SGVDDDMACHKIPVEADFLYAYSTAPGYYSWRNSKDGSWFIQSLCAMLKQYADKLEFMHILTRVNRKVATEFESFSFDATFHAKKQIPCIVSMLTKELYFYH
Outline: as §1

[2] = Group 3, 10 mg/kg/dose twice daily oral
[3] = Group 4, 30 mg/kg/dose twice daily oral
[4] = Group 5, 100 mg/kg/dose twice daily oral
[5] = all dose groups (10, 30, 100 mg/kg/dose twice daily oral)

**Q.** Which results are given for `C[C@H](NC(=O)C(=O)Nc1c(F)cccc1F)C(=O)N[C@@H](CCC(=O)O)C(=O)COc1c(F)c(F)cc(F)c1F` [Example 6, (S)-4-((S)-2-(2-((2,6-Difluorophenyl)amino)-2-oxoacetamido)propanamido)-5-oxo-6-(2,3,5,6-tetrafluorophenoxy)hexanoic acid]?
**A.** body weights, onset of significant improvement [1, 2]: significantly improved beginning on DAY 4; colon histology: Edema, Submucosal, Mean [1, 2]: 3.2; colon histology: Erosion/ Ulceration, Mean [1, 2]: 4.0; colon histology: Hyperplasia, Epithelial, Mean [1, 2]: 3.4; colon histology: Necrosis, Mucosal/ Gland Loss, Mean [1, 2]: 4.0; colon histology: SUM Score, Mean [1, 2]: 19.3; colon histology: Subacute Inflammation, Mucosal/ Submucosal, Mean [1, 2]: 4.3; colon histology: Subacute Inflammation, Transmural/ Serosal, Mean [1, 2]: 3.9; average animal weight, Mean ([1]; Group 3, 10 mpk twice daily oral, study day 0): 241 g; average animal weight, Mean ([1]; Group 3, 10 mpk twice daily oral, study day 1): 236 g; average animal weight, Mean ([1]; Group 3, 10 mpk twice daily oral, study day 2): 223 g; average animal weight, Mean ([1]; Group 3, 10 mpk twice daily oral, study day 3): 218 g; average animal weight, Mean ([1]; Group 3, 10 mpk twice daily oral, study day 4): 218 g; average animal weight, Mean ([1]; Group 3, 10 mpk twice daily oral, study day 5): 222 g; average animal weight, Mean ([1]; Group 3, 10 mpk twice daily oral, study day 6): 227 g; average animal weight, Mean ([1]; Group 3, 10 mpk twice daily oral, study day 7): 228 g; average animal weight, Mean ([1]; Group 3, 10 mpk twice daily oral, study day −1): 256 g; average animal weight, Mean ([1]; Group 3, 10 mpk twice daily oral, study day −5): 222 g; body weights, onset of significant improvement [1, 3]: statistically significantly improved body weights starting on DAY 5; reduction in overall colonic score [1, 3]: 40%; colon histology: Edema, Submucosal, Mean [1, 3]: 2.6; colon histology: Erosion/ Ulceration, Mean [1, 3]: 3.4; colon histology: Hyperplasia, Epithelial, Mean [1, 3]: 3.1; colon histology: Necrosis, Mucosal/ Gland Loss, Mean [1, 3]: 3.4; colon histology: SUM Score, Mean [1, 3]: 17.6; colon histology: Subacute Inflammation, Mucosal/ Submucosal, Mean [1, 3]: 3.9; colon histology: Subacute Inflammation, Transmural/ Serosal, Mean [1, 3]: 3.2; average animal weight, Mean ([1]; Group 4, 30 mpk twice daily oral, study day 0): 234 g; average animal weight, Mean ([1]; Group 4, 30 mpk twice daily oral, study day 1): 228 g; average animal weight, Mean ([1]; Group 4, 30 mpk twice daily oral, study day 2): 215 g; average animal weight, Mean ([1]; Group 4, 30 mpk twice daily oral, study day 3): 214 g; average animal weight, Mean ([1]; Group 4, 30 mpk twice daily oral, study day 4): 216 g; average animal weight, Mean ([1]; Group 4, 30 mpk twice daily oral, study day 5): 218 g; average animal weight, Mean ([1]; Group 4, 30 mpk twice daily oral, study day 6): 220 g; average animal weight, Mean ([1]; Group 4, 30 mpk twice daily oral, study day 7): 223 g; average animal weight, Mean ([1]; Group 4, 30 mpk twice daily oral, study day −1): 248 g; average animal weight, Mean ([1]; Group 4, 30 mpk twice daily oral, study day −5): 222 g; body weights, onset of significant improvement [1, 4]: statistically significantly improved body weights starting on DAY 5; colon histology: Edema, Submucosal, Mean [1, 4]: 3.0; colon histology: Erosion/ Ulceration, Mean [1, 4]: 3.6; colon histology: Hyperplasia, Epithelial, Mean [1, 4]: 3.0; colon histology: Necrosis, Mucosal/ Gland Loss, Mean [1, 4]: 3.6; colon histology: SUM Score, Mean [1, 4]: 17.5; colon histology: Subacute Inflammation, Mucosal/ Submucosal, Mean [1, 4]: 3.9; colon histology: Subacute Inflammation, Transmural/ Serosal, Mean [1, 4]: 3.4; average animal weight, Mean ([1]; Group 5, 100 mpk twice daily oral, study day 0): 232 g; average animal weight, Mean ([1]; Group 5, 100 mpk twice daily oral, study day 1): 231 g; average animal weight, Mean ([1]; Group 5, 100 mpk twice daily oral, study day 2): 219 g; average animal weight, Mean ([1]; Group 5, 100 mpk twice daily oral, study day 3): 213 g; average animal weight, Mean ([1]; Group 5, 100 mpk twice daily oral, study day 4): 217 g; average animal weight, Mean ([1]; Group 5, 100 mpk twice daily oral, study day 5): 220 g; average animal weight, Mean ([1]; Group 5, 100 mpk twice daily oral, study day 6): 222 g; average animal weight, Mean ([1]; Group 5, 100 mpk twice daily oral, study day 7): 225 g; average animal weight, Mean ([1]; Group 5, 100 mpk twice daily oral, study day −1): 246 g; average animal weight, Mean ([1]; Group 5, 100 mpk twice daily oral, study day −5): 222 g; SUM scores of colon histological parameters [1, 5]: statistically significant improvement; overall colonic score [1, 5]: statistically significant improvement; inhibition at 10 µM (Jurkat cells): ≤ 10%; IC50 (Caspase 6): ≥ 1000 nM; IC50 (Caspase-3): ≥ 1000 nM
